Source: US20170020909A1, “METHODS OF TREATING GLAUCOMA USING AMP-ACTIVATED PROTEIN KINASE (AMPK) ACTIVATORS” (Massachusetts Eye and Ear Infirmary, priority 2014, published 2017)

Columns and labels:
AMPKα = test: Time course immunoblot of p-AMPKα (Thr172)/total AMPKα in primary human TM cell lysates; assay type: cell-based; conditions: 0.5 mM AICAR, human TM cells
Description: (§1) Primary human trabecular meshwork (TM) cells were isolated, in accordance with the Declaration of Helsinki, and maintained in culture as described previously.^63 Independent primary human TM cell lines were generated from donors ranging in age from 35 to 72 years and no known history of ocular disease. Cell cultures were maintained, unless otherwise stated, in Dulbecco's modified eagle medium (Life Technologies, Grand Island, N.Y.) containing 20% fetal bovine serum, 1% L-glutamine (2 mM), and gentamicin (0.1 mg/ml) at 37° C. in a 10% CO2 atmosphere. Only TM cells from third through fifth passage were used. All experiments were performed using at least three different primary human TM cell lines.
At the conclusion of each experiment for matricellular and ECM protein detection, conditioned media (CM) from TM cell cultures was harvested and centrifuged at 5000 rpm for 10 minutes at 4° C. The supernatant was then concentrated (Amicon Ultra-4 Filter Unit, 10 kDa; Millipore, Milford, Mass.), and protein content quantified using the DC Protein Assay kit adhering to manufacturer's protocols (Bio-Rad, Hercules, Calif.). For AMPK protein detection, cells were lysed for 3 minutes on ice with cold 1×RIPA buffer containing 0.5% Aprotinin, 0.1% EDTA, 1% EGTA, 0.5% PMSF, and 0.01% Leupeptin. Samples were then centrifuged at 14,000 rpm for 15 minutes at 4° C. and protein content quantified. In all experiments, equal amounts of protein were treated with 6× reducing buffer and boiled for 5 minutes. Samples were then electrophoresed in 10% SDS-polyacrylamide gels, alongside a pre-stained protein marker (Cell Signaling Technology Inc., Danvers, Ma). For conditioned media loading control, the resultant gels were stained with 0.1% Coomassie Brilliant Blue G-250 (Bio-Rad, Hercules Calif.) for 3 hours and were destained with fixing/destaining solution until clear bands were visible and contrasted well with the true blue background. Otherwise, proteins were transferred to nitrocellulose membranes (0.45-μm pore size; Invitrogen). […] The membranes were then washed three times with 1×TBS-T, scanned, and integrated band intensities were calculated using an infrared imaging system (Odyssey; Li-Cor, Lincoln, Nebr.). […]

[1] = test system: Acetyl-CoA carboxylase (ACC); test: Time course immunoblot of p-ACC/total ACC in primary human TM cell lysates; assay type: cell-based; conditions: 0.5 mM AICAR, human TM cells
Description: as §1, with “All experiments were performed using at least three different primary human TM cell lines.” left out
At the conclusion of each experiment for matricellular and ECM protein detection, conditioned media (CM) from TM cell cultures was harvested and centrifuged at 5000 rpm for 10 minutes at 4° C. The supernatant was then concentrated (Amicon Ultra-4 Filter Unit, 10 kDa; Millipore, Milford, Mass.), and protein content quantified using the DC Protein Assay kit adhering to manufacturer's protocols (Bio-Rad, Hercules, Calif.). […] Samples were then centrifuged at 14,000 rpm for 15 minutes at 4° C. and protein content quantified. […] The membranes were then washed three times with 1×TBS-T, scanned, and integrated band intensities were calculated using an infrared imaging system (Odyssey; Li-Cor, Lincoln, Nebr.). […]

For `NC(=O)c1ncn([C@@H]2O[C@H](CO)[C@@H](O)[C@H]2O)c1N` [AICAR, 5-Aminoimidazole-4-carboxamide riboside], the “peak increase of phospho-total AMPK ratio” value (AMPKα; at 2 hours) was “greater than 2 fold”, the “increase of phospho-total AMPK ratio, normalized to the zero time point” value (AMPKα; within 1 hour) was 77% and the “peak increase of phospho-total ACC ratio” value ([1]; at 6 hours) was 6.6 fold. The “change of phospho-total ACC ratio” value ([1]; within 15 minutes) was “increased by a statistically significant degree”.
